Laboratory results from patent US20100113291A1 (CENTRE NATIONAL DE LA RECHERCHE SCIENTIFIQUE, priority 2006, published 2010).

Molecular target: T1, MabA-wt (Mycobacterium tuberculosis, UniProt P9WGT3)
T1 construct: made in house; host or cells: Escherichia coli
Format: binding
Details: spectrofluorimetry; read-out: KD for the cofactor

T1 sequence (P9WGT3 whole entry): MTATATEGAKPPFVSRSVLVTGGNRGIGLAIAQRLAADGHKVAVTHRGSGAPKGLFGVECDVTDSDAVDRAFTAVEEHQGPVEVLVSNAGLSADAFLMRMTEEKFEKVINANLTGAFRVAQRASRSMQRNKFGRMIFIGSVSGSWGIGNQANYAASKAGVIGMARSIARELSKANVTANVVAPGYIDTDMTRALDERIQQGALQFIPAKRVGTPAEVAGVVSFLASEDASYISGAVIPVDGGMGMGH

## NC(=O)C1=CN([C@@H]2O[C@H](COP(=O)(O)OP(=O)(O)OC[C@H]3O[C@@H](n4cnc5c(N)ncnc54)[C@H](OP(=O)(O)O)[C@@H]3O)[C@@H](O)[C@H]2O)C=CC1 [NADPH]
  Kd: 8.7 µM
